The record followed here is patent US20060122152A1, “Heparin for the treatment of ocular pathologies” (priority 2004, published 2006).

Test [1] has as its system corneal neovascularization. The experiment in a line: Silver nitrate cauterization, single agents, percent area of neovascularization and scar (Example 4). The test is classed as in vivo, Long Evans pigmented rats. The conditions noted are these: for NV area compared to the control group, statistical significance (in words): GLM with Tukey's studentized range test, p≦0.05; for Percent Area Of Neovascularization Mean +/− SD: day 7, topical two times daily for 7 days, LMWH 10 mg/ml, ascomycin 50 μg/ml, flurbiprofen 0.03%, doxycycline 20 mg/ml, triamcinolone acetonide 4 mg/ml, normal saline 74.9 +/− 9.2; for mean of percent area (neovascularization): day 7, same treatments, control group 74.9%±9.2%, FIG. 6; for neovascularization on slit lamp photograph (in words): seven days after induction of corneal burn, FIGS. 8A-8C.

Test [2] relates to corneal neovascularization. The experiment in a line: Silver nitrate corneal burn in rat eyes: graded inhibition of neovascularization (Example 1). In kind it is in vivo. The conditions noted are these: single agents topically applied twice a day; doxycycline about 1 to about 20 mg/ml, LMWH about 10 mg/ml, triamcinolone about 4 mg/ml; compared to controls. As to the method: Artificial corneal burns were induced in rat eyes to determine the effects of doxycycline, steroids, and low molecular weight heparin, alone and in combinations, on corneal neovascularization.
The presence of new vessels (neovascularization) and the extent of new vessel formation was assessed by split lamp photography and histology. Inhibition of vessel proliferation was evaluated by measuring vessel progression from the outer cornea (corneal limbus) into the cornea. A numerical rating system was used to quantitate the degree of inhibition (+, ++, and +++ inhibition), with “+ inhibition” indicating inhibition one-third of the distance from the limbus of the cornea to the center; “++ inhibition” indicating inhibition two-thirds of the distance from the limbus to the center; “+++ inhibition” indicating complete inhibition of vessels between the limbus and the center; and the designation “± inhibition” indicating an intermediate degree of inhibition (e.g, less than +, ++, or +++).

Test [3] has as its system corneal neovascularization. As to the kind of experiment: Silver nitrate cauterization, two drug combinations, percentage area of corneal neovascularization (Example 3). The conditions noted are these: for effect on corneal neovascularization as individual agents (in words): flurbiprofen 0.03% w/v, LMWH 10 mg/ml, data not shown. The test is classed as in vivo, Long Evans rats. From the text:
Artificial corneal burns were induced in thirty-two eyes belonging to thirty-two Long Evans rats to determine the effects of doxycycline or another tetracycline derivative and low molecular weight heparin, doxycycline or another tetracycline derivative, and flurbiprofen, or flurbiprofen and low molecular weight heparin, on corneal neovascularization. All the eyes were examined to exclude any eyes with corneal scars and/or neovascularization prior to induction.
Neovascularization was induced in all eyes using silver nitrate cauterization. The animals were first anesthetized by intraperitoneal injection of a mixture of ketamine hydrochloride (25 mg/kg) with xylazine hydrochloride (5 mg/kg). The cornea was then anesthetized by a drop of 0.5% proparacaine and allowed to dry.
Group 1 (number of animals, n=8) received a 1:1 combination of 0.03% flurbiprofen sodium ophthalmic solution (Allergan, Irvine Calif.) and 10 mg/ml low molecular weight heparin (Enoxaparin, Aventis Pharmaceuticals Inc., Bridgewater N.J.); an actual concentration of 0.015% flurbiprofen with 5 mg/ml low molecular weight heparin. […] Group 3 (n=8) received a 1:1 combination of 20 mg/ml doxycycline and 10 mg/ml low molecular weight heparin; an actual concentration of 10 mg/ml doxycycline with 5 mg/ml low molecular weight heparin. Group 4 (n=8) received balanced salt solution (control). The drops were applied topically immediately after cauterization; treatments were administered two times per day for seven days.
The presence of new vessels (neovascularization) and the extent of new vessel formation was assessed by slit lamp photography and histology. Inhibition of vessel proliferation was evaluated by measuring vessel progression from the outer cornea (corneal limbus) into the cornea. As previously described, it will be appreciated that any reduction of new vessel proliferation and/or regression of existing vessels is therapeutic, and that complete inhibition and/or regression is not required, and also that reduction includes regression of existing vessels.
The extent of corneal neovascularization was determined by slit lamp microscopy with photography (SL-7E, Topcon, Tokyo Japan) on day seven after cauterization. The animals were euthanized in a carbon dioxide chamber under deep general anesthesia. […]
Corneal neovascularization was assessed by scanning (Cano scan 9900F, Canon, Tokyo Japan) the slit lamp photographs into high resolution digital images. […] The percentage area of the cornea covered by the corneal scar in each eye was also determined. […]
Statistical analysis was performed using Statistical Analysis System (SPSS 11.5) software. The difference between the groups was determined using Mann-Whitney U Analysis test; a p value less than 0.05 was considered significant.

For the molecule `CC1c2cccc(O)c2C(=O)C2=C(O)C3(O)C(=O)C(C(N)=O)=C(O)C(N(C)C)C3C(O)C21.O` (stereo not shown) [doxycycline, 4-(dimethylamino)-1,4,4a,5,5a,6,11,12a-octahydro3,5,10,12,12a-pentahydroxy-6-methyl-1,11-dioxo-2-naphthacenecarboxamide monohydrate], in test [1], the “NV area compared to the control group, statistical significance (in words)” value is “significant reduction”; the “Percent Area Of Neovascularization Mean +/− SD” value was 35.5 +/− 29.1%; the “mean of percent area (neovascularization)” value (from here on “mean of percent area”) is recorded as 35.5%±29.1%; the “neovascularization on slit lamp photograph (in words)” value is given as “neovascularization is less prominent than in control group”. Besides, the inhibition of neovascularization result in test [2] is listed as “+”. The “effect on corneal neovascularization as individual agent (in words)” value in test [3] (doxycycline at 10 mg/ml) is “not”. Also, the “effect on corneal neovascularization as individual agent (in words)” value in test [3] (doxycycline at 20 mg/ml, p<0.05%) is listed as “did significantly inhibit”.

low molecular weight heparin: in test [1], the “NV area compared to the control group, statistical significance (in words)” value is reported as “no statistically significant differences”; the “Percent Area Of Neovascularization Mean +/− SD” value is 66.7 +/− 9.9%; the “mean of percent area” value is 66.7%±9.9%. In addition, in test [2], the inhibition of neovascularization entry is “+”. Further, the “effect on corneal neovascularization as individual agents (in words)” value in test [3] is on record as “did not significantly decrease”.

Turning to `CC[C@@H]1/C=C(\C)C[C@H](C)C[C@H](OC)[C@H]2O[C@@](O)(C(=O)C(=O)N3CCCC[C@H]3C(=O)O[C@H](/C(C)=C/[C@@H]3CC[C@@H](O)[C@H](OC)C3)[C@H](C)[C@@H](O)CC1=O)[C@H](C)C[C@@H]2OC` [ascomycin], in test [1], the “NV area compared to the control group, statistical significance (in words)” value is listed as “no statistically significant differences” and the “mean of percent area” value is listed as 56.0%±22.4%.

Turning to `CC(C(=O)[O-])c1ccc(-c2ccccc2)c(F)c1.O.O.[Na+]` (racemic) [flurbiprofen, sodium (±)-2-(2-fluoro-4-biphenylyl)-propionate dihydrate], in test [1], the “NV area compared to the control group, statistical significance (in words)” value was “no statistically significant differences”; the “Percent Area Of Neovascularization Mean +/− SD” value is listed as 50.6 +/− 18.7%; the “mean of percent area” value is listed as 50.5%±18.7%; the “neovascularization on slit lamp photograph (in words)” value is on record as “neovascularization is quite prominent”. For the same molecule, the “effect on corneal neovascularization as individual agents (in words)” value in test [3] was “did not significantly decrease”.

Consider `CC1(C)O[C@@H]2C[C@H]3[C@@H]4CCC5=CC(=O)C=C[C@]5(C)[C@@]4(F)[C@@H](O)C[C@]3(C)[C@]2(C(=O)CO)O1` [triamcinolone, 9α-fluoro-11 13,16a,17,21 tetra hydroxy-pregna-1,4diene-3,20-dione cyclic 16,17-acetal with acetone], for which, in test [1], the “NV area compared to the control group, statistical significance (in words)” value is “significant reduction”; the “Percent Area Of Neovascularization Mean +/− SD” value was 13.3 +/− 7.2%; the “mean of percent area” value is 13.3%±7.1%; the “neovascularization on slit lamp photograph (in words)” value was “relatively small neovascular area”. In test [1] (H&E 100X, FIG. 9B), the “histopathology of corneal stroma (in words)” value was “avascular stroma”. The inhibition of neovascularization entry in test [2] is “++”.
